Experimental data as given in US20250380696A1, “METHOD FOR CONTROLLING UNDESIRED PLANTS AND PROMOTING GROWTH OF USEFUL PLANTS” (ISHIHARA SANGYO KAISHA, LTD., priority 2022, published 2025).

Key:
[1] = tested on: Italian ryegrass (Lolium multiflorum); assay: (3) Herbicidal effect test, pot, spray at 2.8 to 3.2 leaf stage; assay type: in vivo; details: 7th day after spraying
Description: (§1) [formula] • X: growth inhibition rate when treated with α (g/ha) of compound A, • Y: growth inhibition rate when treated with β (g/ha) of compound B, • E: growth inhibition rate expected when treated with α (g/ha) of compound A and β (g/ha) of compound B (expected value).
Upland soil was put in a 1/1,000,000 hectare pot, and seeds of Italian ryegrass (Lolium multiflorum) were sown. When the Italian ryegrass reached 2.8 to 3.2 leaf stage, a water-based suspension containing tiafenacil as the active ingredient, prepared by a conventional method for preparing a water-based suspension, and an emulsifiable concentrate containing S-metolachlor as the active ingredient (tradename: Dual Gold, manufactured by Syngenta), were diluted with water (in an amount corresponding to 200 liter per hectare) containing 0.5 vol % of an agricultural spreader (tradename: Destiny HC, manufactured by Winfield Solutions, LLC.) and sprayed by a small spray gun (model: W-101-132G, manufactured by ANEST IWATA Corporation). […] Further, the expected value of the growth inhibition rate (%) was calculated in accordance with the Colby's formula described in the above (1) herbicidal effect test, and the results are also shown in Table 3.

[2] = tested on: Italian ryegrass (Lolium multiflorum); assay: (1) Herbicidal effect test, pot, spray at 2.3 to 3.0 leaf stage; assay type: in vivo; details: 6th day after spraying
Experimental: Upland soil was put in a 1/1,000,000 hectare pot, and seeds of Italian ryegrass (Lolium multiflorum) were sown. When the Italian ryegrass reached 2.3 to 3.0 leaf stage, a water-based suspension containing tiafenacil as the active ingredient, prepared by a conventional method for preparing a water-based suspension, and an emulsifiable concentrate containing S-metolachlor as the active ingredient (tradename: Dual Gold, manufactured by Syngenta), were diluted with water (in an amount corresponding to 200 liter per hectare) containing 0.5 vol % of an agricultural spreader (tradename: Destiny HC, manufactured by Winfield Solutions, LLC.) and sprayed by a small spray gun (model: W-101-132G, manufactured by ANEST IWATA Corporation). On the 6th day after spraying, the state of growth of the Italian ryegrass was visually observed, and the growth inhibition rate (%) was obtained based on the following standards and the results are shown in Table 1.
Further, the expected value of the growth inhibition rate (%) was calculated in accordance with the following Colby's formula (S. R. Colby, “Weeds”, vol. 15 ([…]), p. 20-22) and the results are also shown in Table 1.
as §1
That is, when the growth inhibition rate of the composition of the present invention is higher than E (expected value of growth inhibition rate) calculated by the above formula, the combination can be regarded as having a synergistic effect.

Structure (SMILES)	Growth inhibition rate (%) Measured value ([1]; Dose 12.5 g/ha) [%]	Growth inhibition rate (%) Measured value ([2]; Dose 12.5 g/ha) [%]	Growth inhibition rate (%) Measured value ([2]; Dose 25 g/ha) [%]	Growth inhibition rate (%) Measured value ([1]; Dose 15.6 g/ha) [%]	Growth inhibition rate (%) Measured value ([2]; Dose 125 g/ha) [%]	Growth inhibition rate (%) Measured value ([2]; Dose 250 g/ha) [%]	Growth inhibition rate (%) Measured value ([2]; Dose 375 g/ha) [%]	Growth inhibition rate (%) Measured value ([2]; Dose 750 g/ha) [%]	Growth inhibition rate (%) Measured value ([2]; Dose 1500 g/ha) [%]	Growth inhibition rate (%) Measured value ([2]; Dose 3000 g/ha) [%]
COC(=O)CCNC(=O)C(C)Sc1cc(-n2c(=O)cc(C(F)(F)F)n(C)c2=O)c(F)cc1Cl (stereo not shown) [tiafenacil]	53	75	83	–	–	–	–	–	–	–
CCc1cccc(C)c1N(C(=O)CCl)[C@@H](C)COC [S-metolachlor]	–	–	–	0	0	1	3	4	5	5
